This note sets out measurements from patent US4797399A, “Piperazine compounds and antithrombotic pharmaceutical composition comprising the same” (Fujisawa Pharmaceutical Co., Ltd., priority 1986, dated 1989).

Test [1] has as its system platelet aggregation (collagen). Briefly: Platelet aggregation in vitro, collagen-induced (rabbit platelet rich plasma). It is filed as cell-based. To be noted: Oryctolagus cuniculus. As to the method:
(§1) Platelet rich plasma (PRP) which contains 6-7×10^8 platelets/ml was prepared from rabbit blood. To the 200 μl of PRP, 5 μl of calcium chloride (1 mM) and 50 μl of 25 mM Tris-acetate solution (pH 7.4) containing 120 mM NaCl or test compound were added successively, and then stirred for 2 min. at 37° C. […] Aggregation was measured by using an aggregometer. (NKK HEMA-TRACER 1).

Test [2] relates to platelet aggregation (ADP). Briefly: Platelet aggregation in vitro, ADP-induced (rabbit platelet rich plasma). The test is classed as cell-based. Particulars: Oryctolagus cuniculus. On the procedure: as §1
The subject of test [3] is acetic acid-induced writhing. Briefly: Acetic acid-induced writhing syndrome. Particulars: 32 mg/kg oral, 60 min before 0.6% acetic acid i.p., 3-13 min count; * P < 0.01. The test is classed as in vivo, Scl:ddy strain mice. As to the method:
Male Scl:ddy strain mice aged 6 weeks were used in groups of 10. The test compound was suspended in methylcellulose and administered orally. After 60 min., 20 ml/kg of 0.6% acetic acid solution was administered i.p. and writhing episodes between 3 and 13 min. after acetic acid injection were counted. The data was analyzed statistically by student's t-test.
(Writhing tests count abdominal constrictions after an irritant is injected.)

A further test relates to systemic anaphylaxis. Briefly: Systemic anaphylaxis (passive sensitization with rabbit anti-ovalbumin serum, ovalbumin aerosol). The test is classed as in vivo, Hartley guinea pigs. To be noted: 30 min before antigen aerosol. As to the method: Male Hartley guinea pigs (300-400 g, n=5) were passively sensitized with i.v. injection of rabbit anti-ovalbumin serum. 24 Hours later, test compound was administered orally. 30 Min. after administration of test compound, sensitized animals were placed for 2 min. in a chamber filled with antigen aerosol (ovalbumin) by a conventional nebulizer. Survived animals were regarded as being protected from systemic anaphylaxis.

Test [4] concerns platelet aggregation (collagen). The test is described as follows: Platelet aggregation ex vivo, collagen-induced, after oral administration to rats. It is filed as in vivo, Sprague-Dawley rats. Particulars: 1 hour after dosing, collagen 5.0 μg/ml. On the procedure:
Male Sprague-Dawley rats weighing about 250 g were used after overnight fasting. One hour after oral administration of test compound or vehicle of test compound (control), blood was collected into a tube containing 0.1 vol. of 3.8% sodium citrate. To the 0.45 ml of blood, 0.05 ml of collagen (final concentration 5.0 μg/ml) was added and then incubated for 5 min. at 37° C. under shaking.
The reaction was terminated by addition of 1 ml of 10 mM phosphate buffered saline (pH 7.4) containing 11.5 mM EDTA and 1% formalin. The reaction mixture was centrifuged at 70×g for 5 min. and platelet count of upper phase was measured by Technicon Auto Analizer.
Platelet aggregation was calculated according to the following formula: [formula] A. Platelet count after addition of vehicle of collagen B. Platelet count after addition of collagen
Inhibition of the test compound was calculated according to the following formula; [formula] C. Platelet aggregation (%) of control D. Platelet aggregation (%) of Test compound

The test system of a further test is carrageenin foot edema. The test is described as follows: Carrageenin foot edema. The test is classed as in vivo, Sprague-Dawley rats. Particulars: 320 mg/kg oral, 60 min before phlogogen, edema at 3 hours; * P < 0.05. On the procedure: Male Sprague-Dawley rats weighing about 180 g were used in groups of five. Paw edema was induced by subplantar injection of 1% carrageenin (0.1 ml/rat) into the right hind paw in carrageenin foot edema. The test compound was suspended in methylcellulose and administered orally 60 minutes before phlogogen. Paw volume was measured with plethysmometer (Ugo Basil Co., Ltd.) by water displacement immersing the paw to the lateral malleolus. The difference of paw volume before and 3 hours after the phlogogen was designated as edema volume. The data analyzed statistically by student's t-test.
(In general: The carrageenan paw model is a standard test of acute inflammation.)

Where two headings read alike, the source gives them in different places.

`CC(=O)Oc1ccccc1C(=O)O` [Aspirin, reference compound]: the IC50 in test [1] (pH 7.4, read-out: ID50 Collagen (dose required to inhibit platelet aggregation by 50%)) was 31 µM; in test [2] (pH 7.4, read-out: ID50 ADP (dose required to inhibit platelet aggregation by 50%)), 3.2 mM.
`Cl.NN1CCN(C(=O)Cn2c(=O)sc3ccc(Cl)cc32)CC1` [Example 5, 5-chloro-3-[(4-amino-1-piperazinyl)carbonylmethyl]-2-benzothiazolinone hydrochloride]: the “Inhibition (%) of acetic acid-induced writhing” value in test [3] is reported as 32.8%. Also, the IC50 in test [1] (inducer collagen (2.5 μg/ml), rabbit PRP, pH 7.4, 37° C, read-out: ID50 Collagen (dose required to inhibit platelet aggregation by 50%)) came out at 14 µM; in test [2] (inducer ADP (2.5 μM), rabbit PRP, pH 7.4, 37° C, read-out: ID50 ADP (dose required to inhibit platelet aggregation by 50%)), 0.014 mM. In addition, the “Survival (%)” value is listed as 20% in the test on systemic anaphylaxis (10 mg/kg oral) and 100% in the test with systemic anaphylaxis (100 mg/kg oral). Moreover, the “Inhibition (%) of platelet aggregation ex vivo” value in test [4] (10 mg/kg oral) was found to be 2%; in test [4] (32 mg/kg oral), 67%; in test [4] (100 mg/kg oral), 100%. The “Inhibition (%) of carrageenin foot edema” value in the test on carrageenin foot edema is 40.0%.
